Reference: US20050187288A1, “Beta-lapachone and methods of treating cancer” (priority 2004, published 2005)
Like-named read-outs stand apart in the source and are kept apart here.

Experiments:
ASPC-1 = assay: Colony formation assay, combination with Taxol; assay type: cell-based, human; settings: β-Lapachone 4 μM, Taxol 0.2 μM, 4 hours
Method: Control wells were treated with equivalent volumes of DMSO. After 4 hours cells were rinsed and fresh medium is added. Cultures were observed daily for 10-20 days and then were fixed and stained. […] DNA laddering formation and annexin staining indicate that cell death is due to apoptosis.

PC-3 = settings: human, 4 h
Method: (§3) Control plates received the same volume of DMSO alone. After a 4 hour exposure the drug was carefully removed, and drug-free medium could be added. […] Colonies of greater than 50 cells were scored as survivors. Cells were maintained at 37° C. in 5% CO2 in complete humidity.

[1] = tested on: human breast cancer cells (MCF-7); assay: Colony formation assay, cancer vs normal breast cells; assay type: cell-based; settings: MCF-7, 4 h treatment
From the text: (§1) After 10-20 days, cells were fixed and stained with modified Wright-Giemsa stain.

[2] = Study 1A: repetitive weekly intravenous toxicity study in rats
[3] = tested on: multiple myeloma (MM) cells; assay: MTT assay of multiple myeloma cells; assay type: cell-based, human; settings: 4 μM, 24 h, all seven MM cell lines
CAOV-3 = settings: human, 4 h
Method: as §3

[4] = tested on: normal breast epithelial cells (MCF-10A); assay: Colony formation assay, cancer vs normal breast cells; assay type: cell-based, human; settings: 4 h treatment
From the text: as §1

SK-MEL-28 [5] = settings: human, 4 h
Method: as §3

[6] = tested on: A549 human lung cancer cells; settings: 60 mg/kg IP every three days, 8 treatments
Method: Athymic female nude mice (Ncr) were inoculated subcutaneously with 4×10^6 A549 human lung cancer cells, and the tumors were allowed to grow to 50 mm^3 in size. The animals were randomized into three groups of seven animals per group. […] Mean tumor volume was then analyzed.

DU-145 [7] = assay: cells; settings: Homo sapiens, DU-145, read-out: LC50 (Replicate Results), DU-145, 4 hour exposure, colonies after 14-21 days
Method: as §3

[8] = Study 2A: repetitive weekly intravenous toxicity study in dogs; settings: for decreased hemoglobin: Day 23
From the text: (§4) On Day 23 of the study, 4 animals/sex/group were euthanized (barbiturate overdose) followed by exsanguination and subjected to necropsy as described below.

[9] = tested on: HT-29 human colon cancer cells; assay: Human colon cancer xenograft model; assay type: in vivo, mice
Method: (§2) The animals were randomized into three groups. […] Mean tumor volume was then analyzed.

[10] = tested on: human Panc-1 pancreatic cancer cells; assay type: in vivo, mice
Method: as §2

[11] = dog, in vivo
From the text: as §4

DU-145 [12] = settings: human, 4 h
Method: as §3

E2F1 = E2F1 induction; assay type: cell-based, human; set-up: key: “+” symbol represents overexpression of E2F1 relative to a control
[13] = Study 6B: two week intravenous repetitive dose toxicity study in rats; settings: 45 mg/kg, one animal, Day 15
[14] = Study 3A: neuropharmacological profile in rats
Method: In Study No. 3A, four groups of ten male Sprague-Dawley rats were dosed with a single 1 hour intravenous infusion via the tail vein at doses of 0 (vehicle), 5, 25, and 60 mg/kg as shown in Table 12.
Following dosing, animals were placed in a fixed environment consisting of a Plexiglas square, fitted with a lid and placed on absorbent paper to detect excretions.
Body temperatures were taken on all animals at 15 minutes following dose administration.

[15] = Stability on incubation in human plasma; assay type: in vitro ADME; settings: incubated in human plasma at 37° C. for 16 hrs; previous studies
A549 lung cancer cells = assay: cells; settings: Homo sapiens, A549, read-out: LC50, A549 Clone B surviving >LC99
[16] = Pharmacokinetics after intravenous infusion in rats, HPBCD formulation; settings: male, Sprague-Dawley, rat, plasma
[17] = tested on: PaCa-2 pancreatic cancer cells; assay: cells; settings: Homo sapiens
SK-MEL-28 [18] = assay: cells; settings: Homo sapiens, SK-MEL-28, read-out: LC50 (Replicate Results), SK-MEL-28, 4 hour exposure, colonies after 14-21 days
Method: as §3

Q: Which results are given for `CC1(C)CCC2=C(O1)c1ccccc1C(=O)C2=O` [β-lapachone, 3,4-dihydro-2,2-dimethyl-2H-naphtho [1,2-b]pyran-5,6-dione]?
A: Colonies, Percentage of control (ASPC-1): 45 (1.9) Percentage of control; CC50 (PC-3): 2340 nM; concentrations giving essentially complete elimination of colonies [1]: ≥ 24 µM; NOEL ([2]; Study 1A): 10 mg/kg/dose; bilirubin (slight increase) ([2]; high dose animals, Days 2 and 23, ULN 0.27 mg/dl): 0.33 mg/dL; decrease in hemoglobin ([2]; mid- and high-dose animals, normalized by Day 37): < 2 g/dL; cell viability in cultures [3]: significantly decreased; CC50 (CAOV-3): 1440 nM; number of colonies [4]: no reduction in the number of colonies; CC50 (SK-MEL-28 [5]): 2630 nM; reduction of mean tumor volume [6]: approximately 50%; CC50 (DU-145 [7]): 1100 nM; findings ([8]; 15 mg/kg and 35 mg/kg): signs of reversible extravascular hemolysis; bilirubin ([8]; Days 2 and 23, resolved by Day 37): dose-dependent slight increase; ophthalmologic findings ([8]; dog, in vivo): no drug-related ophthalmologic findings; splenic enlargement (animals) ([8]; high-dose (35 mg/kg)): 3/8; decreased hemoglobin ([8]; high-dose (35 mg/kg)): ~5 g/dL; mean decrease in body weight ([8]; high-dose (35 mg/kg), females): −4%; mean decrease in body weight ([8]; high-dose (35 mg/kg), males): −7%; splenic enlargement (animals) ([8]; mid-dose (15 mg/kg)): 5/8; decreased hemoglobin ([8]; mid-dose (15 mg/kg)): ~3 g/dL; reduction of mean tumor volume ([9]; 60 mg/kg IP every three days, 10 treatments): approximately 75%; toxicity ([9]; mouse, in vivo): No sign of significant toxicity; mean tumor volume ([10]; 40 and 60 mg/kg IP every three days, 5 treatments): reduced the mean tumor volume; toxicity ([10]; mouse, in vivo): No sign of significant toxicity; plasma levels (preliminary toxicokinetic results) [11]: significantly above the values predicted; tolerability ([11]; iv, 5 mg/kg): well-tolerated; CC50 (DU-145 [12]): 1210 nM; E2F1 Induction (E2F1; Colon HT-29): +; E2F1 Induction (E2F1; Colon SW480): +; E2F1 Induction (E2F1; Pancreas PANC1): +; total bilirubin ([13]; ULN 0.27): 0.46 mg/dL; blood urea nitrogen ([13]; ULN 19): 40 mg/dL; creatinine phosphokinase ([13]; ULN 513): 553 IU/L; animals that died during the infusion ([14]; 60 mg/kg at 6 mg/ml): Five of the ten animals; mean body temperature ([14]; 60 mg/kg, 15-minutes post dosing): 34.6 °C; NOEL ([14]; single intravenous dose, male Sprague Dawley rats): 25 mg/kg; stability in human plasma [15]: stable to degradation; CC50 (A549 lung cancer cells): 1500 nM; half-life ([16]; intravenous, elimination half-life, one-hour infusion, doses in the range 5-15 mg/kg): 4.5 to 7 h; AUC ([16]; iv, 5 mg/kg, 1-Hour Infusion): 1280 ± 118 ng·h/mL; AUC ([16]; iv, 5 mg/kg, 10-Min. Infusion): 1200 ± 313 ng·h/mL; Cmax ([16]; iv, 5 mg/kg, 1-Hour Infusion): 363 ± 21 ng/mL; Cmax ([16]; iv, 5 mg/kg, 10-Min. Infusion): 834 ± 116 ng/mL; half-life ([16]; iv, 5 mg/kg, T1/2, 1-Hour Infusion): 4.3 ± 0.6 h; half-life ([16]; iv, 5 mg/kg, T1/2, 10-Min. Infusion): 3.6 ± 0.9 h; Vd ([16]; iv, 5 mg/kg, Vdss, 1-Hour Infusion): 19.6 ± 0.8 L/kg; Vd ([16]; iv, 5 mg/kg, Vdss, 10-Min. Infusion): 20 ± 6.3 L/kg; AUC ([16]; iv, 10 mg/kg, 1-Hour Infusion): 2640 ± 1020 ng·h/mL; Cmax ([16]; iv, 10 mg/kg, 1-Hour Infusion): 707 ± 134 ng/mL; half-life ([16]; iv, 10 mg/kg, T1/2, 1-Hour Infusion): 4.9 ± 1.6 h; Vd ([16]; iv, 10 mg/kg, Vdss, 1-Hour Infusion): 21 ± 5.3 L/kg; AUC ([16]; iv, 15 mg/kg, 1-Hour Infusion): 4900 ± 54 ng·h/mL; Cmax ([16]; iv, 15 mg/kg, 1-Hour Infusion): 896 ± 130 ng/mL; half-life ([16]; iv, 15 mg/kg, T1/2, 1-Hour Infusion): 7 ± 1.6 h; Vd ([16]; iv, 15 mg/kg, Vdss, 1-Hour Infusion): 26.4 ± 5.7 L/kg; Vd ([16]; iv, volume of distribution, intravenous infusion): 20 to 26 L/kg; CC50 ([17]; PaCa-2, read-out: LC50, PaCa-2 Clone A surviving >LC99): 2590 nM; CC50 ([17]; PaCa-2, read-out: LC50, PaCa-2 Clone B surviving >LC99): 2720 nM; CC50 ([17]; PaCa-2, read-out: LC50, PaCa-2 WT): 2690 nM; CC50 (SK-MEL-28 [18]): 2400 nM
